Results on two compounds are retold here after PubChem BioAssay AID1259407 (Chemical Carcinogenesis Research Information System (CCRIS), 2018).

In the series the test system is CCRIS mutagenicity, Ames/micronucleus/aberration tests. Description: CCRIS mutagenicity studies.
[1] abbreviates: Test System: AMES SALMONELLA TYPHIMURIUM, Strain/Indicator: TA98, Metabolic Activation: NONE, Method: STANDARD PLATE.
Setting [2] is: Test System: AMES SALMONELLA TYPHIMURIUM, Strain/Indicator: TA98, Metabolic Activation: RAT, LIVER, S-9, AROCLOR 1254, Method: STANDARD PLATE.

Active and inactive are the calls of the source. The rule behind the calls is not given here.

On to `BrC(Br)Br`, for which the mutagenic call runs as follows: (End Point: IN VITRO CHROMOSOMAL ABERRATIONS, Test System: CHO CELLS, Metabolic Activation: NONE) “inactive; negative”; (End Point: IN VITRO CHROMOSOMAL ABERRATIONS, Test System: CHO CELLS, Metabolic Activation: RAT, LIVER, S-9, AROCLOR 1254) “inactive; negative”; (End Point: IN VIVO MICRONUCLEUS, Test System: BONE MARROW POLYCHROMATIC ERYTHROCYTES, Species: MOUSE, Strain/Sex: DDY/MALE, Route: IP) “inactive; negative”; (Test System: AMES SALMONELLA TYPHIMURIUM, Strain/Indicator: RSJ100, Metabolic Activation: NONE, Method: PREINCUBATION) “active; positive”; (Test System: AMES SALMONELLA TYPHIMURIUM, Strain/Indicator: RSJ100, Metabolic Activation: NONE, Method: STANDARD PLATE) “active; positive”; (Test System: AMES SALMONELLA TYPHIMURIUM, Strain/Indicator: RSJ100, Metabolic Activation: RAT LIVER S-9, Method: PREINCUBATION) “inactive; negative”. The mutagenic call runs as follows: (Test System: AMES SALMONELLA TYPHIMURIUM, Strain/Indicator: TA97, Metabolic Activation: HAMSTER, LIVER, S-9 (10% OR 30%), AROCLOR 1254, Method: PREINCUBATION) “inactive; negative”; (Test System: AMES SALMONELLA TYPHIMURIUM, Strain/Indicator: TA97, Metabolic Activation: NONE, Method: PREINCUBATION) “inactive; negative”; (Test System: AMES SALMONELLA TYPHIMURIUM, Strain/Indicator: TA97, Metabolic Activation: RAT, LIVER, S-9 (10% OR 30%), AROCLOR 1254, Method: PREINCUBATION) “inactive; negative”; (Test System: AMES SALMONELLA TYPHIMURIUM, Strain/Indicator: TA98, Metabolic Activation: HAMSTER, LIVER, S-9 (5% OR 10%), AROCLOR 1254, Method: PREINCUBATION) “inactive; negative”; (Test System: AMES SALMONELLA TYPHIMURIUM, Strain/Indicator: TA98, Metabolic Activation: HAMSTER, LIVER, S-9, AROCLOR 1254, Method: PREINCUBATION) “inactive; negative”; under setting [1], “inactive; negative”. The mutagenic call by setting is: (Test System: AMES SALMONELLA TYPHIMURIUM, Strain/Indicator: TA98, Metabolic Activation: RAT LIVER S-9, Method: PREINCUBATION) “active; positive”; (Test System: AMES SALMONELLA TYPHIMURIUM, Strain/Indicator: TA98, Metabolic Activation: RAT, LIVER, S-9 (10% OR 30%), AROCLOR 1254, Method: PREINCUBATION) “inactive; negative”; (Test System: AMES SALMONELLA TYPHIMURIUM, Strain/Indicator: TA98, Metabolic Activation: RAT, LIVER, S-9, AROCLOR 1254, Method: PREINCUBATION) “inactive; negative”; under setting [2], “inactive; negative”; (Test System: AMES SALMONELLA TYPHIMURIUM, Strain/Indicator: TA100, Metabolic Activation: HAMSTER, LIVER, S-9 (10% OR 30%), AROCLOR 1254, Method: PREINCUBATION) “inactive; negative”; (Test System: AMES SALMONELLA TYPHIMURIUM, Strain/Indicator: TA100, Metabolic Activation: HAMSTER, LIVER, S-9, AROCLOR 1254, Method: PREINCUBATION) “inactive; negative”. Besides, the mutagenic call was “active; positive” (Test System: AMES SALMONELLA TYPHIMURIUM, Strain/Indicator: TA100, Metabolic Activation: NONE, Method: DESICCATOR); “active; positive” (Test System: AMES SALMONELLA TYPHIMURIUM, Strain/Indicator: TA100, Metabolic Activation: NONE, Method: FLUCTUATION TEST); “inactive; negative” (Test System: AMES SALMONELLA TYPHIMURIUM, Strain/Indicator: TA100, Metabolic Activation: NONE, Method: STANDARD PLATE); “inactive; negative” (Test System: AMES SALMONELLA TYPHIMURIUM, Strain/Indicator: TA100, Metabolic Activation: RAT LIVER S-9, Method: PREINCUBATION); “inactive; negative” (Test System: AMES SALMONELLA TYPHIMURIUM, Strain/Indicator: TA100, Metabolic Activation: RAT, LIVER, S-9 (10% OR 30%), AROCLOR 1254, Method: PREINCUBATION); “inactive; negative” (Test System: AMES SALMONELLA TYPHIMURIUM, Strain/Indicator: TA100, Metabolic Activation: RAT, LIVER, S-9, AROCLOR 1254, Method: FLUCTUATION TEST). The mutagenic call is “inactive; negative” (Test System: AMES SALMONELLA TYPHIMURIUM, Strain/Indicator: TA100, Metabolic Activation: RAT, LIVER, S-9, AROCLOR 1254, Method: PREINCUBATION); “inactive; negative” (Test System: AMES SALMONELLA TYPHIMURIUM, Strain/Indicator: TA100, Metabolic Activation: RAT, LIVER, S-9, AROCLOR 1254, Method: STANDARD PLATE); “inactive; negative” (Test System: AMES SALMONELLA TYPHIMURIUM, Strain/Indicator: TA1535, Metabolic Activation: HAMSTER, LIVER, S-9 (10% OR 30%), AROCLOR 1254, Method: PREINCUBATION); “inactive; negative” (Test System: AMES SALMONELLA TYPHIMURIUM, Strain/Indicator: TA1535, Metabolic Activation: HAMSTER, LIVER, S-9, AROCLOR 1254, Method: PREINCUBATION); “active; positive” (Test System: AMES SALMONELLA TYPHIMURIUM, Strain/Indicator: TA1535, Metabolic Activation: NONE, Method: DESICCATOR); “inactive; negative” (Test System: AMES SALMONELLA TYPHIMURIUM, Strain/Indicator: TA1535, Metabolic Activation: NONE, Method: PREINCUBATION). Moreover, the mutagenic call (Test System: AMES SALMONELLA TYPHIMURIUM, Strain/Indicator: TA1535, Metabolic Activation: NONE, Method: STANDARD PLATE) was “inactive; negative”; the mutagenic call (Test System: AMES SALMONELLA TYPHIMURIUM, Strain/Indicator: TA1535, Metabolic Activation: RAT, LIVER, S-9 (10% OR 30%), AROCLOR 1254, Method: PREINCUBATION) was “inactive; negative”; the mutagenic call (Test System: AMES SALMONELLA TYPHIMURIUM, Strain/Indicator: TA1535, Metabolic Activation: RAT, LIVER, S-9, AROCLOR 1254, Method: PREINCUBATION) was “inactive; negative”; the mutagenic call (Test System: AMES SALMONELLA TYPHIMURIUM, Strain/Indicator: TA1535, Metabolic Activation: RAT, LIVER, S-9, AROCLOR 1254, Method: STANDARD PLATE) is “inactive; negative”; the mutagenic call (Test System: AMES SALMONELLA TYPHIMURIUM, Strain/Indicator: TA1537, Metabolic Activation: HAMSTER, LIVER, S-9 (10% OR 30%), AROCLOR 1254, Method: PREINCUBATION) was “inactive; negative”; the mutagenic call (Test System: AMES SALMONELLA TYPHIMURIUM, Strain/Indicator: TA1537, Metabolic Activation: HAMSTER, LIVER, S-9, AROCLOR 1254, Method: PREINCUBATION) was “inactive; negative”. For the same compound, the mutagenic call was “inactive; negative” (Test System: AMES SALMONELLA TYPHIMURIUM, Strain/Indicator: TA1537, Metabolic Activation: NONE, Method: PREINCUBATION); “inactive; negative” (Test System: AMES SALMONELLA TYPHIMURIUM, Strain/Indicator: TA1537, Metabolic Activation: NONE, Method: STANDARD PLATE); “inactive; negative” (Test System: AMES SALMONELLA TYPHIMURIUM, Strain/Indicator: TA1537, Metabolic Activation: RAT, LIVER, S-9 (10% OR 30%), AROCLOR 1254, Method: PREINCUBATION); “inactive; negative” (Test System: AMES SALMONELLA TYPHIMURIUM, Strain/Indicator: TA1537, Metabolic Activation: RAT, LIVER, S-9, AROCLOR 1254, Method: PREINCUBATION); “inactive; negative” (Test System: AMES SALMONELLA TYPHIMURIUM, Strain/Indicator: TA1537, Metabolic Activation: RAT, LIVER, S-9, AROCLOR 1254, Method: STANDARD PLATE); “active; positive” (Test System: MOUSE LYMPHOMA, Strain/Indicator: L5178Y (TK+/TK-), Metabolic Activation: NONE, Method: SUSPENSION/PLATE). Besides, the mutagenic call (Test System: MOUSE LYMPHOMA, Strain/Indicator: L5178Y (TK+/TK-), Metabolic Activation: RAT, LIVER, S-9, AROCLOR 1254, Method: SUSPENSION/PLATE) is “active; positive” and the mutagenic call (Test System: UDS RAT HEPATOCYTES, Strain/Indicator: THY INCORP, Metabolic Activation: NONE, Method: AUTORADIOGRAPHY) was “inactive; negative”.

`CCC12OC1(C(=O)OC)C(=O)OC2C` (stereo not drawn): the mutagenic call reads like this: (Test System: AMES SALMONELLA TYPHIMURIUM, Strain/Indicator: TA98, Metabolic Activation: NONE, Method: DISK ASSAY) “inactive; negative”; under setting [1], “inactive; negative”; (Test System: AMES SALMONELLA TYPHIMURIUM, Strain/Indicator: TA98, Metabolic Activation: RAT, LIVER, S-9, AROCLOR 1254, Method: DISK ASSAY) “inactive; negative”; under setting [2], “active; positive”.
